Results published in patent US9777005B2 (Takeda Pharmaceutical Company Limited, priority 2012, dated 2017).

Molecular target: T1, human M1 receptor (hCHRM1) (Homo sapiens, UniProt P11229)
T1 construct: expressed in transfected cells; host or cells: CHO-K1
T1 sequence (P11229 1-460): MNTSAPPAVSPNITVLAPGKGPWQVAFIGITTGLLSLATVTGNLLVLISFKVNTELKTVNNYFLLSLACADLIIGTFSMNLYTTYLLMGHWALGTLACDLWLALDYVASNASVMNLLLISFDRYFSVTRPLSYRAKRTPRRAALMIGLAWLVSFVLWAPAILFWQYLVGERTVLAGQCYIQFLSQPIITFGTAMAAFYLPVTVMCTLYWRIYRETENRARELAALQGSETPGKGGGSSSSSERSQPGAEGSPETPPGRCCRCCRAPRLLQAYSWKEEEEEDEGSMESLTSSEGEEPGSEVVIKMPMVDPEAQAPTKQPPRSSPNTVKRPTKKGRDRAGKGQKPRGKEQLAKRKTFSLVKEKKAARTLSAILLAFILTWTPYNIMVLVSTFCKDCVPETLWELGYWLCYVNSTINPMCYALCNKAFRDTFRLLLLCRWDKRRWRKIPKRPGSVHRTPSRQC
Experiment: Measurement of M1 receptor positive allosteric modulator (M1PAM) activity, calcium fluorescence (FLIPRtetra) in CHO-K1 cells in the presence of acetylcholine at EC20
Format: cell-based
Settings: in the presence of acetylcholine at EC20 (final 0.6 nM), CHO-K1 cells expressing hCHRM1; for EC50: inflection point of M1PAM activity, read-out: IP value; for activity (%) at 10 μM: test compound 10 μM
How it was run: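 CHO-K1 cells expressing human M1 were loaded with Fluo-4 AM, and compound was added with acetylcholine at EC20 (final 0.6 nM). Calcium fluorescence was read on FLIPRtetra for 1 min. Activity was normalized to 1 μM acetylcholine (100%) and DMSO (0%), and the curve inflection point was reported as IP.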

SMILES | EC50 [µM] | activity (%) at 10 μM [%]
Cn1cc(-c2ccc(CN3Cc4ccnc(OCc5ccc(F)cc5F)c4C3=O)cc2)nn1 [Example 336, 4-((2,4-difluorobenzyl)oxy)-2-(4-(1-methyl-1H-1,2,3-triazol-4-yl)benzyl)-1,2-dihydro-3H-pyrrolo[3,4-c]pyridin-3-one] | 0.022 | 106
Cn1cc(-c2ccc(CN3Cc4ccnc(OCC5CC5)c4C3=O)cc2)nn1 [Example 337, 4-(cyclopropylmethoxy)-2-(4-(1-methyl-1H-1,2,3-triazol-4-yl)benzyl)-1,2-dihydro-3H-pyrrolo[3,4-c]pyridin-3-one] | 0.049 | 92
Cn1cc(-c2ccc(CN3Cc4ccnc(OC5CCC5)c4C3=O)c(F)c2)nn1 [Example 338, 4-(cyclobutyloxy)-2-(2-fluoro-4-(1-methyl-1H-1,2,3-triazol-4-yl)benzyl)-1,2-dihydro-3H-pyrrolo[3,4-c]pyridin-3-one] | 0.019 | 98
Cc1cc(-c2ccc(CN3Cc4ccnc(OCC5CC5)c4C3=O)cc2)ccn1 [Example 339, 4-(cyclopropylmethoxy)-2-(4-(2-methylpyridin-4-yl)benzyl)-1,2-dihydro-3H-pyrrolo[3,4-c]pyridin-3-one] | 0.07 | 106
Cc1nn(C)cc1-c1ccc(CN2Cc3ccnc(OCC4(C)CC4)c3C2=O)c(F)c1 [Example 341, 2-(4-(1,3-dimethyl-1H-pyrazol-4-yl)-2-fluorobenzyl)-4-((1-methylcyclopropyl)methoxy)-1,2-dihydro-3H-pyrrolo[3,4-c]pyridin-3-one] | 0.063 | 93
Cc1nn(C)cc1-c1ccc(CN2Cc3ccnc(OCC(F)(F)c4ccccn4)c3C2=O)c(F)c1 [Example 347, 4-(2,2-difluoro-2-(pyridin-2-yl)ethoxy)-2-(4-(1,3-dimethyl-1H-pyrazol-4-yl)-2-fluorobenzyl)-1,2-dihydro-3H-pyrrolo[3,4-c]pyridin-3-one] | 0.01 | 97
Cn1cc(-c2ccc(CN3Cc4ccnc(OC5c6ncccc6CC5(C)C)c4C3=O)cc2)cn1 (stereo not drawn) [Example 349, 4-((6,6-dimethyl-6,7-dihydro-5H-cyclopenta[b]pyridin-7-yl)oxy)-2-(4-(1-methyl-1H-pyrazol-4-yl)benzyl)-1,2-dihydro-3H-pyrrolo[3,4-c]pyridin-3-one] | 0.012 | 104
Cc1cc(-c2ccc(CN3Cc4cccc(OCC5CCCO5)c4C3=O)cc2)ccn1.Cl (stereo not drawn) [Example 353, 2-(4-(2-methylpyridin-4-yl)benzyl)-7-((tetrahydrofuran-2-yl)methoxy)isoindolin-1-one hydrochloride] | 0.046 | 97
Cc1nn(C)cc1-c1ccc(CN2Cc3cccc(OCC45CCC(CC4)O5)c3C2=O)cc1 [Example 354, 2-(4-(1,3-dimethyl-1H-pyrazol-4-yl)benzyl)-7-((7-oxabicyclo[2.2.1]hept-1-yl)methoxy)isoindolin-1-one] | 0.27 | 93
Cc1cc(-c2ccc(CN3Cc4ccnc(Oc5c(C)cc(F)cc5F)c4C3=O)cc2)cnn1 [Example 358, 4-(2,4-difluoro-6-methylphenoxy)-2-(4-(6-methylpyridazin-4-yl)benzyl)-1,2-dihydro-3H-pyrrolo[3,4-c]pyridin-3-one] | 0.077 | 91
Cc1cc(-c2ccc(CN3Cc4ccnc(Oc5c(F)cc(F)cc5C5CC5)c4C3=O)cc2)cnn1 [Example 361, 4-(2-cyclopropyl-4,6-difluorophenoxy)-2-(4-(6-methylpyridazin-4-yl)benzyl)-1,2-dihydro-3H-pyrrolo[3,4-c]pyridin-3-one] | 0.076 | 100
Cn1cc(-c2ccc(CN3Cc4ccnc(Oc5ccc(OC(F)(F)F)cc5F)c4C3=O)cc2)cn1 [Example 362, 4-(2-fluoro-4-(trifluoromethoxy)phenoxy)-2-(4-(1-methyl-1H-pyrazol-4-yl)benzyl)-1,2-dihydro-3H-pyrrolo[3,4-c]pyridin-3-one] | 0.03 | 98

More lines, in order of falling EC50, values ahead:

EC50 [µM] | activity (%) at 10 μM [%] | SMILES
0.093 | 96 | Cc1cc(F)cc(F)c1Oc1nccc2c1C(=O)N(Cc1ccc(-c3ccn(C)n3)cc1)C2 [Example 359, 4-(2,4-difluoro-6-methylphenoxy)-2-(4-(1-methyl-1H-pyrazol-3-yl)benzyl)-1,2-dihydro-3H-pyrrolo[3,4-c]pyridin-3-one]
0.074 | 97 | Cn1cc(-c2ccc(CN3Cc4ccnc(OC5CCC5)c4C3=O)cc2)cn1 [Example 348, 4-(cyclobutyloxy)-2-(4-(1-methyl-1H-pyrazol-4-yl)benzyl)-1,2-dihydro-3H-pyrrolo[3,4-c]pyridin-3-one]
0.073 | 96 | Cn1ccc(-c2ccc(CN3Cc4ccnc(OCc5ccccc5F)c4C3=O)c(F)c2)n1 [Example 342, 4-((2-fluorobenzyl)oxy)-2-(2-fluoro-4-(1-methyl-1H-pyrazol-3-yl)benzyl)-1,2-dihydro-3H-pyrrolo[3,4-c]pyridin-3-one]
0.072 | 105 | COc1cccc(F)c1Oc1nccc2c1C(=O)N(Cc1ccc(-c3cnn(C)c3)cc1)C2 [Example 360, 4-(2-fluoro-6-methoxyphenoxy)-2-(4-(1-methyl-1H-pyrazol-4-yl)benzyl)-1,2-dihydro-3H-pyrrolo[3,4-c]pyridin-3-one]
0.055 | 97 | Cc1cc(-c2ccc(CN3Cc4ccnc(OCc5ccccc5F)c4C3=O)c(F)c2)cnn1 [Example 344, 4-((2-fluorobenzyl)oxy)-2-(2-fluoro-4-(6-methylpyridazin-4-yl)benzyl)-1,2-dihydro-3H-pyrrolo[3,4-c]pyridin-3-one]
0.051 | 90 | COc1cccc(F)c1Oc1nccc2c1C(=O)N(Cc1ccc(-c3cn(C)nc3C)cc1)C2 [Example 357, 2-(4-(1,3-dimethyl-1H-pyrazol-4-yl)benzyl)-4-(2-fluoro-6-methoxyphenoxy)-1,2-dihydro-3H-pyrrolo[3,4-c]pyridin-3-one]
0.049 | 101 | Cc1cc(-c2ccc(CN3Cc4cccc(OCC5CCCO5)c4C3=O)cc2)cnn1 (stereo not drawn) [Example 356, 2-(4-(6-methylpyridazin-4-yl)benzyl)-7-((tetrahydrofuran-2-yl)methoxy)isoindolin-1-one]
0.044 | 104 | Cn1ccc(-c2ccc(CN3Cc4ccnc(Oc5c(F)cc(F)cc5F)c4C3=O)cc2)n1 [Example 365, 2-(4-(1-methyl-1H-pyrazol-3-yl)benzyl)-4-(2,4,6-trifluorophenoxy)-1H-pyrrolo[3,4-c]pyridin-3(2H)-one]
0.042 | 104 | Cn1ccc(-c2ccc(CN3Cc4ncnc(Oc5c(F)cc(F)cc5F)c4C3=O)cc2)n1 [Example 366, 6-(4-(1-methyl-1H-pyrazol-3-yl)benzyl)-4-(2,4,6-trifluorophenoxy)-6,7-dihydro-5H-pyrrolo[3,4-d]pyrimidin-5-one]
0.031 | 86 | N#Cc1cc(F)c(Oc2cccc3c2C(=O)N(Cc2ccc(-n4cccn4)cc2)C3)c(F)c1 [Example 364, 3,5-difluoro-4-((3-oxo-2-(4-(1H-pyrazol-1-yl)benzyl)-2,3-dihydro-1H-isoindol-4-yl)oxy)benzonitrile]
0.029 | 94 | Cc1nn(C)cc1-c1ccc(CN2Cc3ccnc(OCc4ccccc4F)c3C2=O)c(F)c1 [Example 343, 2-(4-(1,3-dimethyl-1H-pyrazol-4-yl)-2-fluorobenzyl)-4-((2-fluorobenzyl)oxy)-1,2-dihydro-3H-pyrrolo[3,4-c]pyridin-3-one]
0.028 | 101 | Cc1cc(-c2ccc(CN3Cc4ncnc(Oc5c(F)cc(F)cc5F)c4C3=O)cc2)ccn1 [Example 367, 6-(4-(2-methylpyridin-4-yl)benzyl)-4-(2,4,6-trifluorophenoxy)-6,7-dihydro-5H-pyrrolo[3,4-d]pyrimidin-5-one]
0.0066 | 94 | Cn1cc(-c2ccc(CN3Cc4ccnc(Oc5ccc(OC(F)(F)F)cc5C#N)c4C3=O)cc2)cn1 [Example 363, 2-((2-(4-(1-methyl-1H-pyrazol-4-yl)benzyl)-3-oxo-2,3-dihydro-1H-pyrrolo[3,4-c]pyridin-4-yl)oxy)-5-(trifluoromethoxy)benzonitrile]
0.0038 | 106 | Cn1cc(-c2ccc(CN3Cc4ncnc(OCc5ccc(F)cc5F)c4C3=O)cc2)nn1 [Example 340, 4-((2,4-difluorobenzyl)oxy)-6-(4-(1-methyl-1H-1,2,3-triazol-4-yl)benzyl)-6,7-dihydro-5H-pyrrolo[3,4-d]pyrimidin-5-one]
0.0021 | 85 | Cc1nn(C)cc1-c1ccc(CN2Cc3ccnc(OC4CCc5cccnc54)c3C2=O)c(F)c1 (stereo not drawn) [Example 346, 4-(6,7-dihydro-5H-cyclopenta[b]pyridin-7-yloxy)-2-(4-(1,3-dimethyl-1H-pyrazol-4-yl)-2-fluorobenzyl)-1,2-dihydro-3H-pyrrolo[3,4-c]pyridin-3-one]
